The values that follow come from paper doi:10.1101/2021.06.16.448769v1 (bioRxiv, 2021).

Data set [1] is described as follows: Plasma pharmacokinetics after intravenous bolus. The class given is in vivo, Sprague Dawley rats. Particulars: male, Sprague-Dawley, rat.
The target in the next data set is human C5 (Homo sapiens, UniProt P01031). Description: SPR multi-cycle kinetics, binding to human C5. The note with it: for fold change in KD relative to parent: relative to the unmodified parent knob domain, Figure 5H.
Sequence of human C5 (P01031 19-673 limits assumed): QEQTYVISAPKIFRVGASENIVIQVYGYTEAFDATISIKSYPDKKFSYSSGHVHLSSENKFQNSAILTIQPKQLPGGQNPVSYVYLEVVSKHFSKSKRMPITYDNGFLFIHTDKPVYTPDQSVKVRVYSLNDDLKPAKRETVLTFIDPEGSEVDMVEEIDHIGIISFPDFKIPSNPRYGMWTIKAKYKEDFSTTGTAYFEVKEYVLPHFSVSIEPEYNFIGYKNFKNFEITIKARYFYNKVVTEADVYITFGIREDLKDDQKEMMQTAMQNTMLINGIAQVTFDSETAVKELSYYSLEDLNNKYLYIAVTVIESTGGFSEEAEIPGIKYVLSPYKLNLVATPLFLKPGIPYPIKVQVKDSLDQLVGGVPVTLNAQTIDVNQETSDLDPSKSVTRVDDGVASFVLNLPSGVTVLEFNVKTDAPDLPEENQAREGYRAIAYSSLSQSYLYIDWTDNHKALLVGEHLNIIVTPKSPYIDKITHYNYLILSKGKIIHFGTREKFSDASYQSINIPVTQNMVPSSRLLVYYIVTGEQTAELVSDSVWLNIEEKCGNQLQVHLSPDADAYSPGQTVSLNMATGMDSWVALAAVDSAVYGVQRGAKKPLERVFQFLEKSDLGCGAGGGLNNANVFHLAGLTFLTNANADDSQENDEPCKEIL
Sequence of human C5 (P01031 678-1676 limits assumed): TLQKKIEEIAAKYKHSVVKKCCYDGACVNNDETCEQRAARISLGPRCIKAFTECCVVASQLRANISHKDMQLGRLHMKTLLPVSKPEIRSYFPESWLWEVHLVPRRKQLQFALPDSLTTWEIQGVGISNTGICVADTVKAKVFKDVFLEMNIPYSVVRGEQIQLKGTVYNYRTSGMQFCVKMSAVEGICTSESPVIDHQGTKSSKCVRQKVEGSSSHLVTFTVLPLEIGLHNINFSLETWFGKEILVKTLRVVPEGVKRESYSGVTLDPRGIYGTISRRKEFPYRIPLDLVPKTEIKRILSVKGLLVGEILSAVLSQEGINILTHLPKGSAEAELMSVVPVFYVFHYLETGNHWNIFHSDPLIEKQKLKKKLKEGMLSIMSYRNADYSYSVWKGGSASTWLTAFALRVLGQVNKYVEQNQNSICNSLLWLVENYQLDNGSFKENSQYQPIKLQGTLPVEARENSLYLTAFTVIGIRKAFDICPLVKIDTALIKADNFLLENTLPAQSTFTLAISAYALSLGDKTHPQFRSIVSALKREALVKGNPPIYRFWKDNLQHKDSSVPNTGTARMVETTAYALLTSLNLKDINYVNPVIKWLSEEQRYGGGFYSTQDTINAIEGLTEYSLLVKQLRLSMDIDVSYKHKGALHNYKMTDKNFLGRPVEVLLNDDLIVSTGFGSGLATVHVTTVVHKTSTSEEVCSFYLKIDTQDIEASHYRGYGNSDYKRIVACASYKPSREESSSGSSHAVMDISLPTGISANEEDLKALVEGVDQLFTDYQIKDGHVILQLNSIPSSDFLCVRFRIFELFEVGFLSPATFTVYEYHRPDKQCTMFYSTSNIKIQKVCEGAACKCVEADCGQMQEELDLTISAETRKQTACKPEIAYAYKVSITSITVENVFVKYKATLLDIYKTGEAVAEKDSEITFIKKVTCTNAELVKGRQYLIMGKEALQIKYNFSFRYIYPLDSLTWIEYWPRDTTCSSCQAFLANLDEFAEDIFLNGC
The nature of another data set: Solubility. The data set is classed as physicochemical. Particulars: reason for lower in vivo dose of 1 mg/kg.
Data set [2] deals with C5 activation (C5b-6), classical pathway. Kind of data set: Classical pathway. The data set is classed as biochemical.
For data set [3], the system named is C5 activation (C5b-6), alternative pathway. Description: Alternative pathway. The class given is biochemical.
A short description of data set [4]: Plasma stability, mouse plasma. Particulars: plasma (lithium heparin). The data set is classed as in vitro ADME.
The target of another data set is rat C5 protein (Rattus norvegicus, UniProt P08650). Description: SPR single-cycle kinetics, binding to rat C5.
Sequence of rat C5 protein (P08650 19-1681): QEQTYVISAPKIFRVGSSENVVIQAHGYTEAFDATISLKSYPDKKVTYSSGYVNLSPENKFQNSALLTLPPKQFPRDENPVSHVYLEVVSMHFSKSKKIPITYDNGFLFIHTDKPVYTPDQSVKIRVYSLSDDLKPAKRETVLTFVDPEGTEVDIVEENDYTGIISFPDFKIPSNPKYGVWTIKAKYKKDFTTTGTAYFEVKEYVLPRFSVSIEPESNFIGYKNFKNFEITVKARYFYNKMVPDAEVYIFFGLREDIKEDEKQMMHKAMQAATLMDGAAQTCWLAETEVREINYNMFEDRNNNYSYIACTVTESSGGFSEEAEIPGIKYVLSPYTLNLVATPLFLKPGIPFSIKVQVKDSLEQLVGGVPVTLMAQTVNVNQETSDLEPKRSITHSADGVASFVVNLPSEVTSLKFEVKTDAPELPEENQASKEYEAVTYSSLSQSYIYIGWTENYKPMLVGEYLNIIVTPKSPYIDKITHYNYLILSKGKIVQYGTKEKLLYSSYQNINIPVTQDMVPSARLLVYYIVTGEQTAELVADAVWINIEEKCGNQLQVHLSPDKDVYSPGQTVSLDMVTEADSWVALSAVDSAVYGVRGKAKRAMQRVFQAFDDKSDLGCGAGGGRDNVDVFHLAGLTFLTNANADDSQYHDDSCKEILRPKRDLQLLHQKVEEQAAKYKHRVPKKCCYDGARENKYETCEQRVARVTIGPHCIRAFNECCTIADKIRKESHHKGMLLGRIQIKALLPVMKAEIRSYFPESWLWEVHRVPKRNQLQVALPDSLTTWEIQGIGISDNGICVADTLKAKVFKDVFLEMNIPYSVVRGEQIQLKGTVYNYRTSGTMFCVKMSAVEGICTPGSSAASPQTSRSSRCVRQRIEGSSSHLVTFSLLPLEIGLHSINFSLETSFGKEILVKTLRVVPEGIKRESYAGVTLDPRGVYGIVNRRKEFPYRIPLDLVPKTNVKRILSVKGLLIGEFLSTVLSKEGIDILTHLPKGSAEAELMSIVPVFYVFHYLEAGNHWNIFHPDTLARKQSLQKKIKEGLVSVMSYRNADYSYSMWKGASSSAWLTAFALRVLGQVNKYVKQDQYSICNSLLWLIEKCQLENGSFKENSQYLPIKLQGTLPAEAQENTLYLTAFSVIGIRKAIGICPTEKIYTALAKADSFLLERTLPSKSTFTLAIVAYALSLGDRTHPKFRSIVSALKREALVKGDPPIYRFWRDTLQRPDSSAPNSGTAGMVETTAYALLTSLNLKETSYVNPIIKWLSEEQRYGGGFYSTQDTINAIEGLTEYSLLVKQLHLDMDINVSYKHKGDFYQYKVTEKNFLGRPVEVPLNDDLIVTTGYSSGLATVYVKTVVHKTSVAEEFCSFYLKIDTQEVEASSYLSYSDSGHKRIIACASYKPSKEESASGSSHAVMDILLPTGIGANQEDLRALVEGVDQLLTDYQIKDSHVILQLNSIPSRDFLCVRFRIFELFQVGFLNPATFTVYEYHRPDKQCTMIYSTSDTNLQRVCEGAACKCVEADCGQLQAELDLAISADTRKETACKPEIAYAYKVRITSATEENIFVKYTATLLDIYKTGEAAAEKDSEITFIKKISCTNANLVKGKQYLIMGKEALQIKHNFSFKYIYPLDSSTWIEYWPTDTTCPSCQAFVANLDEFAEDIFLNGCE
Data set [5] in a line: Plasma stability, rat plasma. The class given is in vitro ADME. Particulars: plasma (lithium heparin).
Data set [6] is described as follows: Plasma stability, human plasma. The class given is in vitro ADME. Particulars: plasma (lithium heparin).

Bridge positions count the residues as written; N and C are the ends. Ends that are not written are not given here. Peptide text beside a SMILES is read from it. * marks the point of attachment. Palmitoyl = CCCCCCCCCCCCCCCC(=O)*

What is called clearance is the rate of elimination divided by the concentration. The low end stands for a low capacity for elimination, the high end for a high capacity for elimination. In general, half-life refers to the time in which the quantity being followed falls by half. A higher half-life goes with slow decline. For “Palmitoyl-GSSSGCPPGYKSGVDCSPGSECKWGCYAVDGRRYGGYGADSGVGS-OH (disulfide 6-22, 16-26 (inferred)) [K57chemFE-palmitoyl]”, in data set [1] (1 mg/kg), the clearance is 0.8 mL/min/kg and the half-life was 96 min. Moreover, the “fold reduction in affinity for C5 relative to parent” value at human C5 (SPR, relative to unmodified parent peptide) is reported as “four-fold reduction”. Also, the “solubility (in words)” value in the data set “Solubility” is recorded as “poor solubility”.

As to `CSCC[C@@H]1NC(=O)[C@@H]2CCCN2C(=O)[C@@H](NC(=O)[C@@H]2CSSC[C@H](NC(=O)[C@@H](N)CO)C(=O)N3CCC[C@H]3C(=O)N[C@@H](CC(=O)O)C(=O)NCC(=O)N[C@@H](Cc3ccccc3)C(=O)N[C@@H](CO)C(=O)N[C@@H](Cc3ccc(O)cc3)C(=O)N[C@@H](CCCNC(=N)N)C(=O)N[C@@H](CO)C(=O)N[C@@H](Cc3c[nH]c4ccccc34)C(=O)N[C@@H](CC(=O)O)C(=O)N[C@@H](CC(=O)O)C(=O)N[C@@H](Cc3ccccc3)C(=O)N2)CSSC[C@@H](C(=O)N[C@@H](CC(C)C)C(=O)N[C@@H](C)C(=O)N2CCC[C@H]2C(=O)N[C@@H](CCCNC(=N)N)C(=O)N[C@@H](CC(N)=O)C(=O)O)NC(=O)[C@H](CCCNC(=N)N)NC(=O)CNC(=O)[C@H](C(C)C)NC1=O` [K149chemFE] (H-SCPDGFSYRSWDDFCCPMVGRCLAPRN-OH; disulfide 2-15, 16-22 (inferred); N-terminus assumed), the “effect in CP ELISA (in words)” value in data set [2] was “non-functional, silent binder of C5”. Also, the “effect in AP ELISA (in words)” value in data set [3] is on record as “non-functional, silent binder of C5”. For the same compound, the “binding to C5 (in words)” value on human C5 (peptide after reduction and capping of cysteines with iodoacetamide (IAM)) is recorded as “entirely abrogated binding”.

Broadly, the share remaining is what is left of the initial amount, in per cent. For “GCPPGYKSGVDCSPGSECKWGCYAVDGRRYGGYGADSGVGS-OH (disulfide 2-18, 12-22 (inferred)) [K57chemFE]”, the amount remaining at 24 h, 6.25 µg/mL in [4] came out at 22%; in data set [5], 56%; in data set [6], 76%. The “cross reactivity with rat C5 (in words)” value at rat C5 protein was “specific for human C5”. In addition, in data set [1] (10 mg/kg), the clearance amounted to 10.6 mL/min/kg. In [1] (10 mg/kg), this compound gave a half-life of 17 min.

Broadly, the Kd is a measure of binding affinity in units of concentration. Read a high Kd as a looser complex. Take `CC[C@H](C)[C@@H]1NC(=O)[C@H](C)NC(=O)[C@H](C(C)C)NC(=O)CNC(=O)[C@@H]2CSSC[C@@H](C(=O)NCC(=O)N[C@@H](Cc3c[nH]cn3)C(=O)N[C@@H](Cc3ccccc3)C(=O)N[C@@H](CC(C)C)C(=O)N[C@@H](CC(N)=O)C(=O)N[C@@H](CO)C(=O)NCC(=O)N3CCC[C@H]3C(=O)N[C@@H](CC(N)=O)C(=O)N[C@H](C(=O)N[C@@H](CO)C(=O)N3CCC[C@H]3C(=O)N[C@@H](Cc3ccc(O)cc3)C(=O)N[C@H](C(=O)N[C@@H](CO)C(=O)N[C@H](C(=O)O)[C@@H](C)O)C(C)C)[C@@H](C)CC)NC(=O)CNC(=O)[C@H](Cc3c[nH]c4ccccc34)NC(=O)[C@H](CCCNC(=N)N)NC(=O)CNC(=O)[C@H](CSSC[C@H](NC(=O)[C@@H](N)[C@@H](C)O)C(=O)N3CCC[C@H]3C(=O)N[C@@H](CCC(=O)O)C(=O)NCC(=O)N[C@@H](Cc3c[nH]c4ccccc34)C(=O)N[C@@H](CO)C(=O)N[C@@H](CCC(=O)O)C(=O)N2)NC(=O)[C@H](CCC(=O)O)NC(=O)[C@H](Cc2ccc(O)cc2)NC(=O)CNC(=O)[C@H](Cc2ccc(O)cc2)NC1=O` [K92chemFE] (H-TCPEGWSECGVAIYGYECGRWGCGHFLNSGPNISPYVST-OH; disulfide 2-18, 9-23; N-terminus assumed): the “effect in CP ELISA (in words)” value in data set [2] is “no effect”. In data set [3] (Figure 6 data, n=3 replicates), the “Alternative pathway ELISA Emax” value is reported as 27%. On human C5 (mean KD, SPR multi-cycle kinetics, mean of n=3), the Kd amounted to 0.41 nM.

Turning to “cyclo(ADSGVGSTGCPPGYKSGVDCSPGSECKWGCYAVDGRRYGGYG) (disulfide 10-26, 20-30 (inferred); ring closure inferred) [K57chemFE^cyclic]”, the “fold change in KD relative to parent” value at human C5 came out at 0.8.

`CC[C@H](C)[C@@H]1NC(=O)[C@H](CCCCNC(C)=O)NC(=O)[C@H](C(C)C)NC(=O)CNC(=O)[C@@H]2CSSC[C@@H](C(=O)NCC(=O)N[C@@H](Cc3c[nH]cn3)C(=O)N[C@@H](Cc3ccccc3)C(=O)N[C@@H](CC(C)C)C(=O)N[C@@H](CC(N)=O)C(=O)N[C@@H](CO)C(=O)NCC(=O)N3CCC[C@H]3C(=O)N[C@@H](CC(N)=O)C(=O)N[C@H](C(=O)N[C@@H](CO)C(=O)N3CCC[C@H]3C(=O)N[C@@H](Cc3ccc(O)cc3)C(=O)N[C@H](C(=O)N[C@@H](CO)C(=O)N[C@H](C(=O)O)[C@@H](C)O)C(C)C)[C@@H](C)CC)NC(=O)CNC(=O)[C@H](Cc3c[nH]c4ccccc34)NC(=O)[C@H](CCCNC(=N)N)NC(=O)CNC(=O)[C@H](CSSC[C@H](NC(=O)[C@@H](N)[C@@H](C)O)C(=O)N3CCC[C@H]3C(=O)N[C@@H](CCC(=O)O)C(=O)NCC(=O)N[C@@H](Cc3c[nH]c4ccccc34)C(=O)N[C@@H](CO)C(=O)N[C@@H](CCC(=O)O)C(=O)N2)NC(=O)[C@H](CCC(=O)O)NC(=O)[C@H](Cc2ccc(O)cc2)NC(=O)CNC(=O)[C@H](Cc2ccc(O)cc2)NC1=O` [K92chemFE A12K(Ac)] (H-TCPEGWSECGVK(Ac)IYGYECGRWGCGHFLNSGPNISPYVST-OH; disulfide 2-18, 9-23; N-terminus and C-terminus assumed): in data set [3], the “effect in AP ELISA (in words)” value is listed as “two-fold increase in efficacy”. In addition, on human C5, the “fold change in KD relative to parent” value came to 130.2.
